Measured values from patent US10143201B2, “Fungicidal compositions” (Syngenta Crop Protection LLC, priority 2007, dated 2018).

Experiments:
Assay type in all cases: cell-based
[1] = tested on: Pyrenophora teres; assay: Fungicidal action against Pyrenophora teres (net blotch), microtiter growth inhibition; conditions: for inhibition at 0.125 ppm / inhibition at 0.5 ppm / inhibition at 1 ppm / inhibition at 0.0625 ppm: read-out: % activity; for inhibition at 0.5 ppm: 0.5000 ppm; for % activity: alone; for inhibition at 0.25 ppm: 0.2500 ppm
Description: Example B6: Fungicidal Action Against Pyrenophora teres (Net Blotch)
(§1) Conidia of the fungus from cryogenic storage are directly mixed into nutrient broth (PDB potato dextrose broth). After placing a (DMSO) solution of the test compounds into a microtiter plate (96-well format) the nutrient broth containing the fungal spores is added. The test plates are incubated at 24° C. and the inhibition of growth is evaluated after 4 days. The expected fungicidal action is calculated according to the Colby method.

[2] = tested on: Pseudocercosporella herpotrichoides (syn. Tapesia yallundae); assay: Fungicidal action against Pseudocercosporella herpotrichoides (eye spot of cereals), microtiter growth inhibition; conditions: Oculimacula yallundae, alone; for inhibition at 0.0156 ppm / inhibition at 0.25 ppm: read-out: % activity; for inhibition at 0.125 ppm: 0.1250 ppm; for inhibition at 0.25 ppm: 0.2500 ppm
Description: Example B5: Funicidal Action Against Pseudocercosporella herpotrichoides (Syn. Tapesia yallundae), Eye Spot of Cereals
as §1

[3] = tested on: Septoria tritici; assay: Fungicidal action against Septoria tritici (leaf blotch), microtiter growth inhibition; conditions: alone; for inhibition at 0.125 ppm: 0.1250 ppm
Description: Example B3: Fungicidal Action Against Septoria tritici (Leaf Blotch)
as §1

[4] = tested on: Botrytis cinerea; assay: Fungicidal action against Botrytis cinerea (gray mould), microtiter growth inhibition; conditions: alone
Description: Example B2: Fungicidal Action Against Botrytis cinerea (Gray Mould)
as §1

[5] = tested on: Alternaria solani; assay: Fungicidal action against Alternaria solani (early blight tomato/potato), microtiter growth inhibition; conditions: alone
Description: Example B4: Fungicidal Action Against Alternaria solani (Early Blight Tomato/Potato)
as §1, with “after 3” for “after 4”

[6] = tested on: Cercospora arachidicola (syn. Mycosphaerella arachidis); assay: Fungicidal action against Cercospora arachidicola (brown leaf spot of groundnut), microtiter growth inhibition; conditions: Mycosphaerella arachidis, compound alone
Description: Example B8: Fungicidal Action Against Cercospora arachidicola (Syn. Mycosphaerella arachidis), Brown Leaf Spot of Groundnut (Peanut)
as §1, with “24 C” for “24° C.”, “7” for “4”, “days.” for “days. The expected fungicidal action is calculated according to the Colby method.”

[7] = tested on: Gaeumannomyces graminis; assay: Fungicidal action against Gaeumannomyces graminis (take-all of cereals), microtiter growth inhibition; conditions: Gaeumannomyces graminis, compound alone
Description: Example B7: Fungicidal Action Against Gaeumannomyces graminis (Take-all of Cereals)
as §1, with “Mycelial fragments” for “Conidia”, “24 C” for “24° C.”, “days.” for “days. The expected fungicidal action is calculated according to the Colby method.”

[8] = Pyrenophora teres, compound alone, 0.1250 ppm
[9] = Pyrenophora teres, compound alone
[10] = Zymoseptoria tritici, 0.0625 ppm, read-out: % activity
[11] = Zymoseptoria tritici, read-out: % activity
[12] = Alternaria solani, 0.2500 ppm, read-out: % activity
[13] = Pyrenophora teres, compound alone, 0.0625 ppm

Q: What does the source list for `Fc1ccc([C@]2(Cn3cncn3)O[C@H]2c2ccccc2Cl)cc1` (racemic) [Epoxiconazole, epoxiconazole]?
A: inhibition at 0.125 ppm [1, 8]: 20%; inhibition at 0.5 ppm [1, 9]: 50%; inhibition at 1 ppm [1, 9]: 70%; inhibition at 0.0156 ppm [2]: 0%; inhibition at 0.125 ppm [2]: 70%; inhibition at 0.25 ppm [2]: 90%

Q: With `CO/C=C(/C(=O)OC)c1ccccc1Oc1cc(Oc2ccccc2C#N)ncn1` [Azoxystrobin, azoxystrobin] as the compound, how does the “% activity” value ([3]; 0.0625 ppm) read?
A: 70%

Q: And the “% activity” value ([4]; 0.1250 ppm)?
A: 0%

Q: And the “% activity” value ([4]; 0.2500 ppm)?
A: 0%

Q: And the “% activity” value ([4]; 0.5000 ppm)?
A: 0%

Q: And the “% activity” value ([4]; 1.0000 ppm)?
A: 0%

Q: And the “% activity” value ([4]; 2.0000 ppm)?
A: 0%

Q: What about the “% activity” value ([5]; 0.0156 ppm) of the same compound?
A: 20%

Q: And the “% activity” value ([5]; 0.0313 ppm)?
A: 20%

Q: And the “% activity” value ([5]; 0.0625 ppm)?
A: 20%

Q: What about the “% activity” value ([5]; 0.2500 ppm) of the same compound?
A: 50%

Q: And the “% activity” value ([5]; 0.5000 ppm)?
A: 50%

Q: And the “% activity” value ([1]; 0.0313 ppm)?
A: 20%

Q: What about the “% activity” value ([1]; 0.0625 ppm) of the same compound?
A: 50%

Q: And the “% activity” value ([1]; 0.1250 ppm)?
A: 70%

Q: Which inhibition at 0.0625 ppm [3, 10] does the source give for `N#Cc1c(Cl)c(Cl)c(Cl)c(C#N)c1Cl` [Chlorothalonil, chlorothalonil] here?
A: 0%

Q: And the inhibition at 0.125 ppm [3, 11]?
A: 0%

Q: And the inhibition at 0.25 ppm [1, 9]?
A: 0%

Q: And the inhibition at 0.5 ppm [1, 9]?
A: 20%

Q: What about the inhibition at 0.0156 ppm [2] of the same compound?
A: 0%

Q: What about the inhibition at 0.0313 ppm [2] of the same compound?
A: 50%

Q: What about the inhibition at 0.125 ppm [2] of the same compound?
A: 90%

Q: For `O=C(NCCc1ncc(C(F)(F)F)cc1Cl)c1ccccc1C(F)(F)F` [Compound B-5.12, N-{2-[3-chloro-5-(trifluoromethyl)pyridin-2-yl]ethyl}-2-(trifluoromethyl)benzamid], which inhibition at 0.0313 ppm ([6]; 0.0313 ppm) is on record?
A: 0%

Q: What about the inhibition at 0.0625 ppm ([6]; 0.0625 ppm) of the same compound?
A: 0%

Q: What about the inhibition at 0.125 ppm ([6]; 0.1250 ppm) of the same compound?
A: 20%

Q: What about the inhibition at 0.25 ppm ([6]; 0.2500 ppm) of the same compound?
A: 20%

Q: What about the inhibition at 0.0039 ppm ([7]; read-out: % activity) of the same compound?
A: 0%

Q: And the inhibition at 0.0078 ppm ([7]; 0.0078 ppm, read-out: % activity)?
A: 0%

Q: What about the inhibition at 0.0156 ppm [7] of the same compound?
A: 0%

Q: What about the inhibition at 0.0313 ppm ([7]; read-out: % activity) of the same compound?
A: 0%

Q: What about the inhibition at 0.125 ppm ([7]; 0.1250 ppm) of the same compound?
A: 0%

Q: And the inhibition at 0.25 ppm ([7]; 0.2500 ppm)?
A: 0%

Q: And the inhibition at 0.5 ppm ([7]; 0.5000 ppm)?
A: 0%

Q: What about the inhibition at 1 ppm ([7]; 1.0000 ppm) of the same compound?
A: 0%

Q: What about the inhibition at 2 ppm ([7]; 2.0000 ppm) of the same compound?
A: 0%

Q: Which inhibition at 0.125 ppm ([5]; Alternaria solani, 0.1250 ppm) does the source give for `CC(C1CC1)C(O)(Cn1cncn1)c1ccc(Cl)cc1` (centres unmarked) [Cyproconazole, cyproconazole] here?
A: 0%

Q: And the inhibition at 0.25 ppm [5, 12]?
A: 0%

Q: What about the inhibition at 0.5 ppm ([5]; Alternaria solani, 0.5000 ppm, read-out: % activity) of the same compound?
A: 20%

Q: What about the inhibition at 0.25 ppm [2] of the same compound?
A: 70%

Q: What about the inhibition at 0.0039 ppm ([7]; read-out: % activity) of the same compound?
A: 0%

Q: What about the inhibition at 0.0313 ppm ([7]; read-out: % activity) of the same compound?
A: 0%

Q: And the inhibition at 0.0625 ppm ([7]; read-out: % activity)?
A: 20%

Q: Which inhibition at 0.125 ppm [3, 11] does the source give for `Cc1cc(C2CC2)nc(Nc2ccccc2)n1` [Cyprodinil, cyprodinil] here?
A: 0%

Q: And the inhibition at 0.25 ppm ([3]; Zymoseptoria tritici, 0.2500 ppm, read-out: % activity)?
A: 0%

Q: And the inhibition at 0.5 ppm ([3]; Zymoseptoria tritici, 0.5000 ppm, read-out: % activity)?
A: 0%

Q: And the inhibition at 1 ppm ([3]; Zymoseptoria tritici, 1.0000 ppm)?
A: 0%

Q: What about the inhibition at 2 ppm ([3]; Zymoseptoria tritici, 2.0000 ppm) of the same compound?
A: 0%

Q: And the inhibition at 0.25 ppm [5, 12]?
A: 50%

Q: And the inhibition at 0.0313 ppm ([1]; Pyrenophora teres, compound alone, 0.0313 ppm)?
A: 20%

Q: And the inhibition at 0.0625 ppm [1, 13]?
A: 20%

Q: What about the inhibition at 0.125 ppm [1, 8] of the same compound?
A: 50%

Q: And the inhibition at 0.25 ppm [1, 9]?
A: 50%

Q: What about the inhibition at 0.0156 ppm [2] of the same compound?
A: 20%

Q: What about the inhibition at 0.0313 ppm [2] of the same compound?
A: 70%

Q: Which results are given for `CC1COC(Cn2cncn2)(c2ccc(Oc3ccc(Cl)cc3)cc2Cl)O1` (centres unmarked) [Difenoconazole, difenoconazole]?
A: inhibition at 0.0313 ppm ([3]; Zymoseptoria tritici, 0.0313 ppm): 50%; inhibition at 0.0625 ppm [3, 10]: 90%; inhibition at 0.0625 ppm [1, 13]: 20%; inhibition at 0.125 ppm [1, 8]: 50%; inhibition at 0.25 ppm [1, 9]: 50%; inhibition at 0.5 ppm [1, 9]: 70%; inhibition at 1 ppm [1, 9]: 70%; inhibition at 0.125 ppm [2]: 50%; inhibition at 0.0039 ppm ([7]; read-out: % activity): 0%; inhibition at 0.0156 ppm [7]: 0%; inhibition at 0.0313 ppm ([7]; read-out: % activity): 0%; inhibition at 0.0625 ppm ([7]; read-out: % activity): 0%
